The source of these data is patent publication US20230107216A1, “PANTETHEINE DERIVATIVES AND USES THEREOF” (Comet Therapeutics, Inc., priority 2018, published 2023).

Each structure is given as a SMILES string. Like-named read-outs stand apart in the source and are kept apart here.

Assay [1] deals with Propionic Acidemia (PA) primary fibroblasts GM00371. In words: Mitochondrial respiration, XFe96 Extracellular Flux Analyzer (OCR/ECAR), PA fibroblasts GM00371. Format: cell-based. Conditions: Homo sapiens, Fibroblast, read-out: Increase in Maximal Respiratory Capacity AUC.
A further assay concerns HepG2 cells. Briefly: Glucose uptake (Glucose Uptake-Glo). Format: cell-based. The settings on record: Homo sapiens, read-out: % increase in Glucose Uptake.
The subject of assay [2] is Very long-chain acyl-CoA dehydrogenase (VLCAD) primary fibroblasts GM17475. Briefly: Total NAD+ + NADH and NAD+ (NAD/NADH-Glo), VLCAD fibroblasts GM17475. The assay is classed as cell-based. The settings on record: Homo sapiens, Fibroblast, VLCAD GM17475 P10, assay condition A, 24h, read-out: Increase in Total NAD+ + NADH. How it is done: Primary adherent fibroblasts were cultured in minimum essential medium (MEM) (Gibco, 25030081) supplemented with 2 mM L-Glutamine (Gibco, 25030081), 15% fetal bovine serum (FBS) (Gibco, 26400044) and 1% penicillin/streptomycin (Gibco, 5140122) at 37° C. and 5% CO2. Cells were collected for either passaging or experiment at ˜70-80% confluence. Cells were obtained by trypsinization and seeded in cell culture microplates either white plate (Thermo Fisher Scientific, 152028) for luminescent measurement or black plate (Thermo Fisher Scientific, 165305) for fluorescent based read out for different assays listed below. Cells were obtained by trypsinization and […] were seeded and allowed to adhere for 16-18 hours to have confluency around 70-80% in the cell well with culture media. After 24 hours prior to measurements (37° C., 5% CO2) media was changed to Dulbecco's Modified Eagle Medium (DMEM, Agilent Seahorse cat #103575-100) with the appropriate supplements as stated below.
Primary fibroblasts assayed were Propionic Acidemia (PA) (GM03590 Coriell Institute for Medical Research, Tsi 6337 Trans-Hit Bio), Methylmalonic Acidemia (MMA) (Tsi 5224 Trans-Hit Bio), Subnormal activation of pyruvate dehydrogenase complex (PDH) (GM01503 Coriell Institute for Medical Research), Very long-chain acyl-CoA dehydrogenase (VLCAD) (GM17475), Leigh Syndrome (LS) (GM03672, GM13411 Coriell Institute for Medical Research), Pyruvate Carboxylase Deficiency (PC) (GM00444 Coriell Institute for Medical Research). 10 μM of Compounds were added for 2 hours in PA, MMA lines and for 24h for the other fibroblast lines.
Assay was performed according to manufacturer instructions (NAD/NADH-Glo Assay Promega, G9072). The NAD/NADH-Glo Assay is a bioluminescent assay for detecting total oxidized and reduced nicotinamide adenine dinucleotides (NAD+ and NADH, respectively) from which ratio of NAD/NADH can be calculated. Briefly, for every assay a 12-point standard curve was prepared ranging from 400 nM to 0.625 nM. Media was removed and replaced with 50 μl of PBS for both assays.
For individual NAD+ and NADH measurement, 50 μl of 1% DTAB (Sigma Cat #D5047) (cell lysis reagent) in 0.2N NaOH was added to the plate and a total 100 μl of lysate was split into two plates with 50 μl each. 25 μl of 0.4N HCl were added to the NAD+ plate and both NAD+ and NADH plate were heated at 60° C. for 15 minutes. The acid and heat treatment destroyed NADH allowing individual NAD+ measurement while heating in basic conditions destroys NAD+ allowed individual NADH measurements. The plates were allowed to come to room temperature for 10 minutes and Trizma base (Sigma, T1699) was added to the NAD+ plate to neutralize the acid and HCl Trizma hydrochloride (Sigma, T2694) was added to the NADH plate. The NADNADH glo reagent was prepared by adding: 625 μl of NAD cycling substrate, 125 μl of reductase, 125 μl of reductase substrate, 125 μl NAD cycling enzyme to total of the 25 ml of NAD GLO reagent. 1:1 ratio of total volume of reagent was added to the individual NAD+, NADH measurement (total 100 μl) and 50 μl for total NAD/NAH measurement. Luminescence was read between 30-60 minutes within the linear range.
A total dead cell count was performed as described in Example 817 and only alive cells were used for analysis.

The test system of assay [3] is monocyte-derived M1 macrophages. Briefly: M1 differentiation assay (macrophage TNFα, IL6, IL10 ELISA, FACS). The assay is classed as cell-based, human. Conditions: for activation at 10 µM: read-out: % Increase in IL-10 Secretion. Summed up: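 CD14+ human blood monocytes (100,000) differentiated 6 days with 10 ng/ml GM-CSF plus compound at 10 or 50 μM, refreshed days 2 and 4. Matured 24 h with GM-CSF, IFNγ, LPS plus compound. Supernatant TNFα, IL6, IL10 by ELISA; FACS M1 phenotype CD86+CD68+CD163−.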

Setting [4] is: assay condition C (10 mM glucose, 10% FBS).
The mark [5] stands for this setting: Homo sapiens, Macrophage, 10 uM.
The mark [6] stands for this setting: assay condition D (1 mM glucose, 10% FBS).
[7] abbreviates: Homo sapiens, Macrophage, 10 uM, read-out: % decrease in Macrophage IL-6 Secretion.
Where [8] appears, read: Homo sapiens, Macrophage, 10 uM, read-out: % decrease in Macrophage TNFα Secretion.

Regarding `CC(O)C(C(=O)SCCNC(=O)CCNC(=O)[C@H](O)C(C)(C)CO)C(C)O` (stereo partly drawn) [Compound 1285, (2R)-2,4-dihydroxy-N-[2-[(2-[[3-hydroxy-2-(1-hydroxyethyl)butanoyl]sulfanyl]ethyl)carbamoyl]ethyl]-3,3-dimethylbutanamide], in assay [1] (setting [4]), the activation at 50 µM was at least 10%. The activation at 10 µM in the assay on HepG2 cells was at least 30%; in assay [2], at least 10%.
Turning to `CC(O)CC(O)CC(=O)SCCNC(=O)CCNC(=O)[C@H](O)C(C)(C)CO` (stereo partly shown) [Compound 400], the activation at 10 µM in assay [3] (setting [5]) is at least 30%; in assay [2], at least 10%. Further, the inhibition at 50 µM in assay [3] (Homo sapiens, Macrophage, 50 uM, read-out: % decrease in Macrophage TNFα Secretion) was at least 30%.
`COC(=O)CC(C(C)=O)C(=O)SCCNC(=O)CCNC(=O)[C@H](O)C(C)(C)CO` (stereo partly shown) [Compound 410]: the activation at 50 µM in assay [1] (setting [6]) was at least 10%; in the assay with HepG2 cells, at least 30%. In addition, the activation at 10 µM in assay [2] is at least 10%.
Consider `CC(C)(CO)[C@@H](O)C(=O)NCCC(=O)NCCSC(=O)CC(=O)CCC(=O)O` [Compound 2, 6-[(2-[3-[(2R)-2,4-dihydroxy-3,3-dimethylbutanamido]propanamido]ethyl)sulfanyl]-4,6-dioxohexanoic acid], for which, in assay [1] (setting [6]), the activation at 50 µM was at least 10%. The activation at 10 µM (in the assay on HepG2 cells; in assay [2]) was at least 10% throughout.
As to `CC(=O)SCCNC(=O)CCNC(=O)[C@H](O)C(C)(C)COC(=O)CCC(=O)O` [Compound 1242, (R)-12-hydroxy-13,13-dimethyl-2,7,11,16-tetraoxo-15-oxa-3-thia-6,10-diazanonadecan-19-oic acid], the “% decrease in Live Macrophage Cells” value in assay [3] (10 uM) was at least 20%. Moreover, the activation at 10 µM was at least 30% in assay [3] (setting [5]) and at least 10% in assay [2]. In addition, the inhibition at 10 µM in assay [3] (setting [7]) and in assay [3] (setting [8]) was at least 30% throughout.
For `CC(=O)OCC(C)(C)[C@@H](O)C(=O)NCCC(=O)NCCSC(=O)CC(=O)CCC(=O)O` [Compound 140, 6-[(2-[3-[(2R)-4-(acetyloxy)-2-hydroxy-3,3-dimethylbutanamido]propanamido]ethyl)sulfanyl]-4,6-dioxohexanoic acid], the activation at 50 µM in assay [1] (setting [4]) is at least 10%. Moreover, the activation at 10 µM in assay [2] was at least 10%.
As for `CC(=O)OCC(C)(C)[C@@H](OC(C)=O)C(=O)NCCC(=O)NCCSC(C)=O` [Compound 1264, (1R)-3-(acetyloxy)-1-[(2-[[2-(acetylsulfanyl)ethyl]carbamoyl]ethyl)carbamoyl]-2,2-dimethylpropyl acetate], the activation at 50 µM with HepG2 cells is at least 20%. In addition, the activation at 10 µM in assay [2] is at least 10%.
Consider `C[C@@H](O)CC(=O)SCCNC(=O)CCNC(=O)[C@H](O)C(C)(C)CO` [Compound 38, S-2-{3-[(R)-2,4-dihydroxy-3,3-dimethylbutyrylamino]propionylamino} ethyl (R)-3-hydroxybutanethioate], for which, in assay [3] (50 uM), the “% Increase in Live Macrophage Cells” value is reported as at least 20%. Also, the figures for the activation at 10 µM in assay [3] (setting [5]) and in assay [2] were at least 30% and at least 10%, respectively. Moreover, the inhibition at 10 µM in assay [3] (setting [7]) and in assay [3] (setting [8]) was at least 30% each time.
As for `CCC(=O)CC(=O)SCCNC(=O)CCNC(=O)[C@H](O)C(C)(C)CO` [Compound 382, (2R)-2,4-dihydroxy-3,3-dimethyl-N-[2-([2-[(3-oxopentanoyl)sulfanyl]ethyl]carbamoyl)ethyl]butanamide], the activation at 10 µM is at least 10% in assay [1] (assay condition D (1 mM glucose, 10% FBS), 10 μM) and at least 10% in assay [2]. For the same molecule, in the assay on HepG2 cells, the activation at 50 µM was at least 30%.
For the molecule `CC(O)CC(O)CC(O)CC(=O)SCCNC(=O)CCNC(=O)[C@H](O)C(C)(C)CO` (stereo partly shown) [Compound 401], the “% decrease in Live Macrophage Cells” value in assay [3] (50 uM) is at least 20%. Further, the inhibition at 10 µM in assay [3] (setting [8]) is at least 30%. Also, the activation at 10 µM in assay [2] was at least 10%.
On to `CC[C@@H](O)CC(=O)SCCNC(=O)CCNC(=O)[C@H](O)C(C)(C)CO` [Compound 1245, (2R)-2,4-dihydroxy-N-{2-[(2-{[(3R)-3-hydroxypentanoyl]sulfanyl}ethyl)carbamoyl]ethyl}-3,3-dimethylbutanamide], for which the activation at 10 µM in assay [3] (setting [5]) is at least 30%; in assay [2], at least 10%. In addition, the inhibition at 10 µM in assay [3] (setting [7]) and in assay [3] (setting [8]) was at least 30% each time.
As to `C[C@@H](O)CC(=O)CC(=O)SCCNC(=O)CCNC(=O)[C@H](O)C(C)(C)CO` [Compound 42, (2R)-2,4-dihydroxy-N-[2-[(2-[[(5R)-5-hydroxy-3-oxohexanoyl]sulfanyl]ethyl)carbamoyl]ethyl]-3,3-dimethylbutanamide], the activation at 10 µM in assay [2] is at least 10%.
